# In US20220242863A1, “COMPOUNDS FOR TREATMENT OF EYE DISORDERS” (SINOPSEE THERAPEUTICS, priority 2019, published 2022):
# Like-named read-outs stand apart in the source and are kept apart here.
# Assays:
# PDGFRβ [1] = target: T1, PDGFRβ (Homo sapiens, UniProt P09619); experiment: Western blot of PDGFRβ autophosphorylation and Shp2 phosphorylation in HEK293 cell line model; type: cell-based; set-up: expressed in transfected cells; host or cells: HEK293; conditions: HEK293 cells expressing PDGFRβ, 20 ng/ml PDGF; FIG. 1
# Experimental: Human Embryonic kidney cells (HEK293) were constructed to express human PDGFRWT under the control of constitutive CMV promoter. Cells were grown in the presence of 20 ng/ml PDGF (the ligand for the PDGFRβ) to activate the PDGFRβ. Different concentrations of the compounds of Examples 1 and 2 were added to study their effect on the PDGFRβ-mediated signaling. Autophosphorylation of PDGFRβ and Shp2 phosphorylation were monitored by Western blotting and were used as the markers for PDGFRβ signaling. β-Actin was used as an internal control.
# [2] = test system: BA/F3 cells expressing FIt3; experiment: Cell viability by MTS assay (MTS Assay 2); type: cell-based; conditions: Mus musculus, BaF3, concentration required to reduce cell viability to 50%, 20-48 hrs
# Experimental: (§1) The effect of the compounds on cell viability were determined using MTS assay. MTS Cell Proliferation Assay Kit is a colorimetric method for sensitive quantification of viable cells in proliferation and cytotoxicity assay. The method is based on the reduction of MTS tetrazolium compound by viable cells to generate a colored formazan product that is soluble in cell culture media. BA/F3 cells expressing the receptor tyrosine kinase (either PDGFR [MTS Assay 1] or FIt3 [MTS Assay 2]) were cultured in standard culture conditions in a 96-well microtiter plate (final volume of 200 μl/well) in the absence or presence of the compound to be tested and were incubated for 20-48 hrs. MTS Reagent (20 μl/well) was added into each well & incubated for 0.5-4 hours at 37° C. in standard culture conditions. Absorbance at 490 nm was recorded using a plate reader.
# (§2) Results are shown in FIGS. 2 and 3 and Table 2 (where IC50 indicates the concentration of compound required to reduce cell viability to 50%).
# In Table 3: • L represents an IC50 of less than 500 nM • M represents an IC50 of between 500 nM and 5000 nM • H represents an IC50 of more than 5000 nM • For the MTS Assay, the result indicates the concentration of compound required to reduce cell viability to 50%.
# [3] = test system: BA/F3 cells expressing PDGFR; experiment: Cell viability by MTS assay (MTS Assay 1); type: cell-based; conditions: for Activity in MTS cell viability assay compared to imatinib and quizartinib controls: Ba/F3 cells expressing PDGFR, FIG. 2
# Experimental: as §1, §2
# For the MTS Assay, the result indicates the concentration of compound required to reduce cell viability to 50%.
# Flt3 = target: T2, Flt3 (Homo sapiens, UniProt P36888); experiment: In vitro kinase assay ([γ-33P]-ATP); type: biochemical; conditions: ATP at apparent Km of the kinase
# T2 sequence (P36888 27-993): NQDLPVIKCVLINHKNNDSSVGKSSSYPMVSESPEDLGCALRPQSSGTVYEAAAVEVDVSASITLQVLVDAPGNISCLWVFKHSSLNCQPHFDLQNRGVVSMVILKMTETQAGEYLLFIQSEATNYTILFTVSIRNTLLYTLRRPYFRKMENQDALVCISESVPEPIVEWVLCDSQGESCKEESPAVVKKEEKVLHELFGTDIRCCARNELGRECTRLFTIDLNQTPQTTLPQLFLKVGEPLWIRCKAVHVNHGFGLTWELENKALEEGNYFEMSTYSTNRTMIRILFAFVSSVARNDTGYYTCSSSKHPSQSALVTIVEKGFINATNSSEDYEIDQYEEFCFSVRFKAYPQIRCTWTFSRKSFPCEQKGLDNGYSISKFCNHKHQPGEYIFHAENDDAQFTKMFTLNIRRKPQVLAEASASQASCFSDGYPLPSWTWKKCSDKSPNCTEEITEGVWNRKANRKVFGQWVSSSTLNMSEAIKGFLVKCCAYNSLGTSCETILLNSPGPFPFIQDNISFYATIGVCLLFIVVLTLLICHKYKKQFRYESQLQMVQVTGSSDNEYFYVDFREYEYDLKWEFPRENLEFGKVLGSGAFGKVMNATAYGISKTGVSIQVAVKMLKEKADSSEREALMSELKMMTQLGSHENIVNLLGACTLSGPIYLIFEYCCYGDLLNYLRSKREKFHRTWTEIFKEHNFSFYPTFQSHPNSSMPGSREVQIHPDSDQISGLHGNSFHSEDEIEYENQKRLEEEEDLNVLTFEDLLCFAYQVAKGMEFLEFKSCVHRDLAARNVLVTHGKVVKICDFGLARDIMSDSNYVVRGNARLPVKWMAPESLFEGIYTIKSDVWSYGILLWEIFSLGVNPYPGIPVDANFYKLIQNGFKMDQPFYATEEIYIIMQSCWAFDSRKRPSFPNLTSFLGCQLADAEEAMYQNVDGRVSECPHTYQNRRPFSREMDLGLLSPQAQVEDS
# Experimental: (§3) To determine the inhibitory activity of compounds, in vitro kinase assays were performed on respective enzymes purified from Sf9 insect cells or E. coli as recombinant GST-fusion proteins or His-tagged proteins.
# PDGFRβ [4] = target: T1, PDGFRβ; experiment: In vitro kinase assay ([γ-33P]-ATP); type: biochemical; conditions: ATP at apparent Km of the kinase
# Experimental: as §3
# CDK19 = CDK19 (Homo sapiens, UniProt Q9BWU1); experiment: In vitro kinase assay ([γ-33P]-ATP); type: biochemical; conditions: ATP at apparent Km of the kinase
# Experimental: as §3
# PDGFR-α = PDGFR-α (Homo sapiens, UniProt P16234); experiment: In vitro kinase assay ([γ-33P]-ATP); type: biochemical; conditions: ATP at apparent Km of the kinase
# Experimental: as §3
# VEGFR-2 = VEGFR-2 (Homo sapiens, UniProt P35968); experiment: In vitro kinase assay ([γ-33P]-ATP); type: biochemical; conditions: ATP at apparent Km of the kinase
# Experimental: as §3
# CDK8 = CDK8 (Homo sapiens, UniProt P49336); experiment: In vitro kinase assay ([γ-33P]-ATP); type: biochemical; conditions: ATP at apparent Km of the kinase
# Experimental: as §3
# [5] = Mus musculus, BaF3, concentration required to reduce cell viability to 50%, BA/F3 cells expressing PDGFR, 20-48 hrs, read-out: IC50 (nM) MTS Assay 1
# PDGFR-α, sequence (P16234 24-1089): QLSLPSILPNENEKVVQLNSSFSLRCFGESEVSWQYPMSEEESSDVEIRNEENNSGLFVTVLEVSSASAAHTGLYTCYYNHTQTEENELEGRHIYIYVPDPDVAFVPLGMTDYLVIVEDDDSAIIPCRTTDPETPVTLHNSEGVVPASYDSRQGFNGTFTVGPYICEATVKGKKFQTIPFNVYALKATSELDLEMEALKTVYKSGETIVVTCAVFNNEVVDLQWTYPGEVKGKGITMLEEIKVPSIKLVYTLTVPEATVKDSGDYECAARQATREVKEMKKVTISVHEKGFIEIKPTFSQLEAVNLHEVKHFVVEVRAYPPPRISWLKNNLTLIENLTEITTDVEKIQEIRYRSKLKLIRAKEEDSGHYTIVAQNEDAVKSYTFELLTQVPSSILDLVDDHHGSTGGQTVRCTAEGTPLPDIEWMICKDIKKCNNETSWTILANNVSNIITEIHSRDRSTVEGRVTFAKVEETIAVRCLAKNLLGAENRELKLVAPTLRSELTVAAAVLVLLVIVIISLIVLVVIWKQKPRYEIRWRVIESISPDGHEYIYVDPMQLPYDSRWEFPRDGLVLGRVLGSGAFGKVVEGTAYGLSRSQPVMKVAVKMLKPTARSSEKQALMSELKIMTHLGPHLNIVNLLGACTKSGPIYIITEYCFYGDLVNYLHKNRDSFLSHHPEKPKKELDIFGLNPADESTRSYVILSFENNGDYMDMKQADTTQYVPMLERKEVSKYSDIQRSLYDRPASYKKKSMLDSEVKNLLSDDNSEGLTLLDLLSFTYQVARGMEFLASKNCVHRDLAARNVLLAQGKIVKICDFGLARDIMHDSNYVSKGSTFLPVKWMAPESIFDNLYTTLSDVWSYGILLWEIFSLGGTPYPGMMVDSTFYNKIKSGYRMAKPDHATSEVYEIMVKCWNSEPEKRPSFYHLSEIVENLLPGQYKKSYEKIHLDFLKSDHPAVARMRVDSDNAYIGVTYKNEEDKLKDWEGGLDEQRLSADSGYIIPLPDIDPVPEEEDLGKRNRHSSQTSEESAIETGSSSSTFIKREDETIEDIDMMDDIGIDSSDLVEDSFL
# T1 sequence (P09619 33-1106): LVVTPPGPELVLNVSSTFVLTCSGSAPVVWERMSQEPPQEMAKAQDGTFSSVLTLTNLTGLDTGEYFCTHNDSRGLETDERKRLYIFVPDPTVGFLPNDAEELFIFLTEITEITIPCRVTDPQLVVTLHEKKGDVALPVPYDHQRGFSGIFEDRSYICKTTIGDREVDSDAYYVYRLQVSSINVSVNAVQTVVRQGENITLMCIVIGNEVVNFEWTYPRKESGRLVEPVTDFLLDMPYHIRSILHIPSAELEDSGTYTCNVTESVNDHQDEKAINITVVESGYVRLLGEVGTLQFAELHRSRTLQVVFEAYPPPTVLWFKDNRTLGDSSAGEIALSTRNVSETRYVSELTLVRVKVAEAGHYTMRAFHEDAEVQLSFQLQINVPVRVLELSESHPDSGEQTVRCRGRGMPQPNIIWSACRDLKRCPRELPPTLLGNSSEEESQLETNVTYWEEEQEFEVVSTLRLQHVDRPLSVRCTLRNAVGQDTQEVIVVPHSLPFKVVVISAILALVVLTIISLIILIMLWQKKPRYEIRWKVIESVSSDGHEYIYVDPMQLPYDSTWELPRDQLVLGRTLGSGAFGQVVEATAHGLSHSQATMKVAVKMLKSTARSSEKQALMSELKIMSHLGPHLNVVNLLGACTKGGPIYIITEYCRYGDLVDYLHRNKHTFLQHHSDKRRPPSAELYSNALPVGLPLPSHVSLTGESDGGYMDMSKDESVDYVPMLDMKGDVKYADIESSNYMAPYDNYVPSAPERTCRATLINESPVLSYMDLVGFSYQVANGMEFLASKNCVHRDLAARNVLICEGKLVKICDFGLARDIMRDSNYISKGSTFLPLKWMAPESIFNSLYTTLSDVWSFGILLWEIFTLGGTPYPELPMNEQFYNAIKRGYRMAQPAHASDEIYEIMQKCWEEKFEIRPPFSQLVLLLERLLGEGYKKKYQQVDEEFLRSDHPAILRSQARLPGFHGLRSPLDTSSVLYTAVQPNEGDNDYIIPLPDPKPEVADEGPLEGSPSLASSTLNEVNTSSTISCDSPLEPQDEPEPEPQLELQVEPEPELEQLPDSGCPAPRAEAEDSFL
# VEGFR-2, sequence (P35968 20-1356): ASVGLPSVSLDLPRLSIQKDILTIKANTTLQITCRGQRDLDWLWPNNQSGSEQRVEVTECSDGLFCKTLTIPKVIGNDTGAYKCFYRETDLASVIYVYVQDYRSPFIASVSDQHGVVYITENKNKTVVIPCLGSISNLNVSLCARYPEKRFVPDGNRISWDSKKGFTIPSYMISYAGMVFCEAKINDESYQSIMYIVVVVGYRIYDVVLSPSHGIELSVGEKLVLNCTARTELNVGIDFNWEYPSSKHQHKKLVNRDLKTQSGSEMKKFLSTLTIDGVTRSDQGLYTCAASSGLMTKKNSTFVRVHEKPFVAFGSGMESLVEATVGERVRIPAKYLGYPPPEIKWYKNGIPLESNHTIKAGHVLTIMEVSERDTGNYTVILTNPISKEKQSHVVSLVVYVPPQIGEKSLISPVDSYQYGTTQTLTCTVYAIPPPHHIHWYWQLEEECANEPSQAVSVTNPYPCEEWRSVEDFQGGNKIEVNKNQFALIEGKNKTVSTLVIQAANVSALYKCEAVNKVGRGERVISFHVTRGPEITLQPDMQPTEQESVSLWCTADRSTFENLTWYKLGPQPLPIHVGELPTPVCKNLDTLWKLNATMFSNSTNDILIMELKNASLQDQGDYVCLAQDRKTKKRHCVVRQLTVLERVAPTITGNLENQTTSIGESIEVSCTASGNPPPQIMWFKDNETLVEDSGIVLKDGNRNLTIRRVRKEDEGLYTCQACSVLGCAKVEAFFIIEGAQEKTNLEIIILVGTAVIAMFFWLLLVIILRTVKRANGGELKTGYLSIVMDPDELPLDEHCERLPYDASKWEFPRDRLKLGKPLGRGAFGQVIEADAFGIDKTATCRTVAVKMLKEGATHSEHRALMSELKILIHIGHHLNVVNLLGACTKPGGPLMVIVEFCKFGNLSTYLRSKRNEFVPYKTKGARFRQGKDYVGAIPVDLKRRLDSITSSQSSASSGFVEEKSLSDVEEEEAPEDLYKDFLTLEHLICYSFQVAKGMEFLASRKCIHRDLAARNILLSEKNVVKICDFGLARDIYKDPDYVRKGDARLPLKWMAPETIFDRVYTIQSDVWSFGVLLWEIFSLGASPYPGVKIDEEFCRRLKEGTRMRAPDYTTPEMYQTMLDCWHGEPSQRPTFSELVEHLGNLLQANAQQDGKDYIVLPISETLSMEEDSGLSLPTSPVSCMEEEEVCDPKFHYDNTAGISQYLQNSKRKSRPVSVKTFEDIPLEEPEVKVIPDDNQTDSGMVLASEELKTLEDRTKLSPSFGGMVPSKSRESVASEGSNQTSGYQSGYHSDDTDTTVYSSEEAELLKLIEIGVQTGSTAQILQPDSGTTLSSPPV
# CDK19, sequence (Q9BWU1 whole entry, species assumed): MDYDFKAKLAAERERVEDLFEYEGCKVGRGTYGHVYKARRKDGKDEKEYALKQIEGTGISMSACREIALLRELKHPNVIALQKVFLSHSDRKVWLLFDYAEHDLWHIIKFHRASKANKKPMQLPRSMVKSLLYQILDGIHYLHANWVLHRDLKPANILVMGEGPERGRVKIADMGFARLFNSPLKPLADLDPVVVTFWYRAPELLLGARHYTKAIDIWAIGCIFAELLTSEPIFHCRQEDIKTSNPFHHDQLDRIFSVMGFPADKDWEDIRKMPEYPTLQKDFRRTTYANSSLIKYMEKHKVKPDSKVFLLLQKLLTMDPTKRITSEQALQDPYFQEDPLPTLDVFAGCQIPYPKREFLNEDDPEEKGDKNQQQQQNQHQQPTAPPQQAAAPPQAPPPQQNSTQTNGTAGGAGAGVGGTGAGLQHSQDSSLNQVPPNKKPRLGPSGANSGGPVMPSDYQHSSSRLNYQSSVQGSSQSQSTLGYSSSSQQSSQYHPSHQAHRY
# CDK19, sequence (P24863 whole entry partner, species assumed): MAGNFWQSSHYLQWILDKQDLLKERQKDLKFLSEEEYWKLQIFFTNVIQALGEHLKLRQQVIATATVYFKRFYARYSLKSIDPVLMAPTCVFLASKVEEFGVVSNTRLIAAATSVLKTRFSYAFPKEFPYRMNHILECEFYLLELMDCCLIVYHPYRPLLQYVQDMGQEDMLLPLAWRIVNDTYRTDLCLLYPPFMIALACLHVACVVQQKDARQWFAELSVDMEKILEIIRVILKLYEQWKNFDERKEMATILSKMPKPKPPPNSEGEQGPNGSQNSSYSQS
# CDK8, sequence (P49336 whole entry, species assumed): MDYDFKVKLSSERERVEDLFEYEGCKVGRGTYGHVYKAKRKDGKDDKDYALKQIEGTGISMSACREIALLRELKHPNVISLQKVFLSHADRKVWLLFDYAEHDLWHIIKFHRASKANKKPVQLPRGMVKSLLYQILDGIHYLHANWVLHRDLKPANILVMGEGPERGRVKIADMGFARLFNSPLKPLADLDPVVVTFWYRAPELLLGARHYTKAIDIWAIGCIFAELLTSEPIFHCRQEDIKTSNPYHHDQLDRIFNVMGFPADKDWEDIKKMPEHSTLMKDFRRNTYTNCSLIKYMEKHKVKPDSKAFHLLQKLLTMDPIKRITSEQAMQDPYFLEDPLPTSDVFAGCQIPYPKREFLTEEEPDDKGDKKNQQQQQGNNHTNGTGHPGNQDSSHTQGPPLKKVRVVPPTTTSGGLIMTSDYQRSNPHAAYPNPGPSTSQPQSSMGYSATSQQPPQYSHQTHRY
# CDK8, sequence (P24863 whole entry partner, species assumed): as the sequence (P24863 whole entry partner, species assumed) above
smiles,measurement,setting,value
Cn1nc(NC(=O)COc2ccc(-c3cnc4ccccn34)cn2)cc1C(F)(F)F [Example 1],"Inhibition of PDGFRβ signaling (PDGFRβ autophosphorylation, Shp2 phosphorylation)",PDGFRβ [1],able to inhibit PDGFRβ signaling
same,IC50,[2],< 500 nM
same,Activity in MTS cell viability assay compared to imatinib and quizartinib controls,[3],improved activity when compared to the imatinib and quizartinib controls
same,IC50,"[3]; Mus musculus, BaF3, read-out: IC50 (nM) MTS Assay 1",< 500 nM
same,IC50,Flt3,< 500 nM
same,IC50,PDGFRβ [4],< 500 nM
same,IC50,CDK19,< 500 nM
same,IC50,PDGFR-α,< 500 nM
same,IC50,VEGFR-2,< 500 nM
same,IC50,CDK8,< 500 nM
Cc1ccc(NC(=O)COc2ccc(-c3cnc4ccccn34)cn2)cc1C(F)(F)F [Example 2],"Inhibition of PDGFRβ signaling (PDGFRβ autophosphorylation, Shp2 phosphorylation)",PDGFRβ [1],able to inhibit PDGFRβ signaling
Cc1cnc(NC(=O)COc2ccc(-c3cnc4cnccn34)cn2)cc1C(F)(F)F [Example 3],Activity in MTS cell viability assay compared to imatinib and quizartinib controls,[3],improved activity when compared to the imatinib and quizartinib controls
Cn1nc(NC(=O)COc2ccc(-c3cnc4cnccn34)c(F)n2)cc1C(F)(F)F [Example 6],IC50,[2],< 500 nM
same,IC50,[3]; [5],500 to 5000 nM
Cc1ccc(NC(=O)COc2ccc(-c3cnc4cnccn34)c(F)n2)cc1C(F)(F)F [Example 7],IC50,[2],< 500 nM
same,IC50,[3]; [5],< 500 nM
Cn1nc(NC(=O)COc2ccc(-c3cnc4cnccn34)cn2)cc1C(F)(F)F [Example 9],IC50,"[3]; concentration required to reduce cell viability to 50%, BA/F3 cells expressing PDGFR, 20-48 hrs, read-out: IC50 (nM) MTS Assay 1",< 500 nM
same,IC50,CDK19,< 500 nM
same,IC50,CDK8,< 500 nM
Cc1ccc(NC(=O)COc2ccc(-c3cnc4ccc(-c5ccc(C(=O)N6CCOCC6)cc5)cn34)cc2)cc1C(F)(F)F [Example 10],IC50,[3]; [5],< 500 nM
O=C(Nc1cc(C(F)(F)F)c(Cl)cn1)C1(Oc2ccc(-c3cnc4cnccn34)cn2)CC1 [Example 12],IC50,Flt3,> 5000 nM
same,IC50,PDGFRβ [4],> 5000 nM
same,IC50,CDK19,> 5000 nM
same,IC50,PDGFR-α,> 5000 nM
same,IC50,VEGFR-2,> 5000 nM
same,IC50,CDK8,> 5000 nM
CC(Oc1ccc(-c2cnc3cnccn23)cn1)C(=O)Nc1cc(C(F)(F)F)c(Cl)cn1 (stereo not drawn) [Example 13],IC50,Flt3,> 5000 nM
same,IC50,PDGFRβ [4],500 to 5000 nM
same,IC50,CDK19,500 to 5000 nM
same,IC50,PDGFR-α,500 to 5000 nM
same,IC50,VEGFR-2,500 to 5000 nM
same,IC50,CDK8,500 to 5000 nM
Cc1ccc(NC(=O)c2ccc(Nc3cnc4cnccn34)cc2)cc1C(F)(F)F [Example 14],IC50,Flt3,> 5000 nM
same,IC50,PDGFRβ [4],> 5000 nM
same,IC50,CDK19,500 to 5000 nM
same,IC50,PDGFR-α,> 5000 nM
same,IC50,VEGFR-2,> 5000 nM
same,IC50,CDK8,500 to 5000 nM
Cc1ccc(NC(=O)CNc2ccc(-c3cnc4cnccn34)cc2)cc1C(F)(F)F [Example 15],IC50,[2],< 500 nM
same,IC50,Flt3,< 500 nM
same,IC50,PDGFRβ [4],< 500 nM
same,IC50,CDK19,< 500 nM
same,IC50,PDGFR-α,< 500 nM
same,IC50,VEGFR-2,< 500 nM
same,IC50,CDK8,< 500 nM
O=C(CNc1ccc(-c2cnc3cnccn23)cc1)Nc1cc(C(F)(F)F)c(Cl)cn1 [Example 16],IC50,Flt3,< 500 nM
same,IC50,PDGFRβ [4],< 500 nM
same,IC50,CDK19,< 500 nM
same,IC50,PDGFR-α,< 500 nM
same,IC50,VEGFR-2,< 500 nM
same,IC50,CDK8,< 500 nM
Cn1nc(NC(=O)CNc2ccc(-c3cnc4cnccn34)cc2)cc1C(F)(F)F [Example 17],IC50,Flt3,< 500 nM
same,IC50,PDGFRβ [4],< 500 nM
same,IC50,CDK19,< 500 nM
same,IC50,PDGFR-α,< 500 nM
same,IC50,VEGFR-2,< 500 nM
same,IC50,CDK8,< 500 nM
Cn1nc(NC(=O)CNc2ccc(-c3cnc4cnccn34)c(F)c2)cc1C(F)(F)F [Example 18],IC50,Flt3,< 500 nM
same,IC50,PDGFRβ [4],< 500 nM
same,IC50,CDK19,< 500 nM
same,IC50,PDGFR-α,< 500 nM
same,IC50,VEGFR-2,< 500 nM
same,IC50,CDK8,< 500 nM
Cn1nc(NC(=O)COc2ccc(-c3cnn4cccnc34)cc2)cc1C(F)(F)F [Example 19],IC50,Flt3,< 500 nM
same,IC50,PDGFRβ [4],< 500 nM
same,IC50,CDK19,< 500 nM
same,IC50,PDGFR-α,< 500 nM
same,IC50,VEGFR-2,< 500 nM
same,IC50,CDK8,< 500 nM
